Measurements: patent publication US12048714B2, “Products and methods for organ protection with noble nanoparticles” (UCHICAGO ARGONNE, LLC, priority 2020, dated 2024)
“Also recorded” adds a separate entry of the source.

Experiments:
[1] = Ex situ reduction of gold precursors by NADH to Au NPs, monitored by UV-vis spectra; settings: for formation of Au NPs / reduction to Au0 when mixed with NADH: gold precursor mixed with NADH, ex situ
Description: Gold (III) chloride (AuCl3) and cofactors, NADH, NADPH and ATP, were purchased from Sigma/Aldrich (St. Louis, MO). Paraformaldehyde/glutaraldehyde fixative solution was purchased from Electron Microscopy Sciences (Hatfield, PA). Gold NPS were formed through reduction of the AuCl3 by cofactors. Briefly, 100 μM NADH solution in PBS, pH 7.4, was placed in a cuvette and mixed with aliquots of AuCl3 in the same buffer to achieve 4:1, 2:1, and equimolar NADH/precursor ratios, at room temperature under constant stirring. Oxidation of NADH and formation of Au NPs were recorded at 340 nm and 520 nm, respectively, by UV-vis spectra using CARY-50 spectrophotometer.
AuCl3 was chosen as a precursor due to higher electron sinking capacity of Au (III) and higher stability as compared to Au(I) that can transform in vivo into Au(III) (Thakor et al., Nano Lett, 2011, 11: 4029-4036).

[2] = system: living acute brain sections; experiment: In-situ gold nanoparticle biosynthesis in hypoxic living acute brain sections (staining, SAXS/WAXS, TEM); type: cell-based, mice C57BL/6J
Description: All animal procedures and the brain slice preparation procedures were performed in accordance with the Institutional Animal Care and Use Committee at the University of Chicago. Experimental mice C57BL/6J (male, 17 days old, n=2) were anesthetized by intraperitoneal injection of ketamine-xylazine, decapitated, and had their brains quickly removed. The brains were placed to the ice-cold “cut” artificial cerebrospinal fluid (ACSF) solution (containing the following, in mM: 3 KCl, 26 NaHCO3, 1 NaH2PO4, 0.5 CaCl2), 3.5 MgSO4, 25 dextrose, 123 sucrose) for quick, less than 5 min, slicing on vibratome at a thickness of 450 μm. The sections then were placed into an oxygenated incubation ACSF solution (containing the following, in mM: 123 NaCl, 3 KCl, 26 NaHCO3, 1 NaH2PO4, 2 CaCl2), 6 MgSO4, 25 dextrose) for 40 min, maintained at 32-36° C. (Sadovsky et al., J Neurosci, 2013, 33:14048-676). Tissue was left to rest at room temperature for 30 min before hypoxic induction. Hypoxia was induced in brain slices (i.e., living acute brain sections) in an oxygen-deprived chamber for 5 min, while their opposite hemisphere counterparts were used as normally oxygenated controls.
Three aliquots of aqueous AuCl3 were added to oxygen-deprived and oxygenated (control) brain slices to reach 100 μM-10 mM final concentrations of the precursor, incubated for 5 min, thoroughly rinsed (to ensure removal of precursor excess), and fixed using 2% glutaraldehyde+2% paraformaldehyde in 0.1M phosphate buffer, pH 7.4, and then stored in the same fixing solution at +5° C. before imaging and analyses.
Before the beam experiment, brain slices were removed from the ACSF solution, and mounted by sealing them between two thin glass cover slides (Fisherfinest). In situ small-angle X-ray scattering (SAXS) and wide angle X-ray scattering (WAXS) (SAXS/WAXS) measurements were carried out at beamline 12-ID-B of the Advanced Photon Source (APS), Argonne National Laboratory. In situ SAXS data were analyzed by custom-built software that is run on Matlab after standard data correction including background correction.
To isolate Au NPs, fixed brain slices were freeze-dried and mechanically grinded down. Then the NPs were extracted by DI water followed by separation of the biological debris via centrifugation (2000 rpm for 10 min). The NPs-containing supernatant were dropped onto an Ultrathin Carbon Cu transmission electron microscopy (TEM) grid with the Formvar pre-removed in toluene. Samples were allowed to set for about 1 hour and then rinsed by DI water. TEM analysis of the NPs was performed with a JEM-2100F field emission electron microscope (JEOL LTD, Tokyo, Japan) operated at 200 kV.
Coronal 450 μm thick sections of the mouse brain were isolated and prepared by a technique that allows maintaining the integrity of the isolated brain functions for sufficient experimental time-lapse, as depicted in FIGS. 4A-D. (See Sadovsky et al., J Neurosci, 2013, 33: 14048-U14676). The prepared living brain slices were incubated in a chamber with oxygenated ACSF solution (containing the following, in mM: 123 NaCl, 3 KCl, 26 NaHCO3, 1 NaH2PO4, 2 CaCl2), 6 MgSO4, 25 dextrose) for 40 min, maintained at 32-36° C. (Sadovsky et al., J Neurosci, 2013, 33: 14048-14676). Tissue was left to rest at room temperature for 30 min before hypoxic induction. Hypoxia was induced in brain slices in an oxygen-deprived chamber for 5 min, while their opposite hemisphere counterparts were used as normally oxygenated controls. […]

Compound: [Cl][Au] [AuCl, gold monochloride]
- formation of Au NPs / reduction to Au0 when mixed with NADH [1]: reduced by NADH to Au^0

Compound: CC(=O)OC[C@H]1O[C@@H]([S-])[C@H](OC(C)=O)[C@@H](OC(C)=O)[C@@H]1OC(C)=O.CCP(CC)CC.[Au+] [auranofin, reference compound]
- formation of Au NPs / reduction to Au0 when mixed with NADH [1]: yielded no Au NPs

Compound: O=C([O-])CC([S-])C(=O)[O-].[Au+].[Na+].[Na+] (stereo not drawn) [myochrysine, reference compound]
- formation of Au NPs / reduction to Au0 when mixed with NADH [1]: yielded no Au NPs

Compound: OC[C@H]1O[C@H]([S-])[C@H](O)[C@@H](O)[C@@H]1O.[Au+] [solganal, reference compound]
- formation of Au NPs / reduction to Au0 when mixed with NADH [1]: yielded no Au NPs

Compound: Gold (III) chloride [AuCl3]
- staining indicative of Au NPs in brain slices ([2]; hypoxic slices, 100 μM precursor, 5 min incubation): revealed staining localized mainly in the outer regions of the brain section; also recorded: pink staining mainly in the outer regions of the brain section
- formation of Au NPs / staining in brain slices ([2]; hypoxic slices, 10 mM precursor): significant dark staining
- formation of Au NPs / staining in brain slices ([2]; hypoxic slices, 10 mM precursor, listed as Au(III) precursor): formation of Au NPs took place only in hypoxic brain slices
- formation of Au NPs / staining in brain slices ([2]; oxygenated (control) brain slices exposed to precursor): preserves its natural color
- formation of Au NPs / staining in brain slices ([2]; oxygenated (control) brain slices exposed to precursor, listed as Au(III) precursor): No Au NPs were detected
- time of reaction after which pink color was detected by the naked eye ([1]; AuCl3/NADH molar ratio 1:4): 20 min
- time to appearance of new peak at 520 nm characteristic for Au NPs ([1]; AuCl3/NADH molar ratio 1:4): ~7 min
- oxidation of NADH (peak at 340 nm) ([1]; AuCl3/NADH molar ratio 1:4, NADH aqueous solution, UV-vis): immediate drop of the intensity of peak at 340 nm
